Measurements taken from patent US11890285B2, “Combination therapies” (Mirati Therapeutics, Inc., priority 2019, dated 2024).
“And” between values parts separate entries of the source, which are not always exact repeats. Equal entries are not always repeated.

How the values were obtained:
[1] = system: CT26.WT KRas G12C E3 clone tumors; experiment: Tumor volumes of CT26.WT KRas G12C E3 clone tumor bearing mice, single agents and combination; type: in vivo, BALBc mice
Experimental: (§1) BALBc mice were inoculated in the right hind flank with 1×10^6 CT26.WT KRas G12C E3 cells harboring the KRas G12C mutation, and tumor volumes were measured using a caliper every two-three days and tumor volumes were calculated by the formula: […].
(§2) When tumor volumes reached between 200-400 mm^3 in size (Study Day 0), the mice were divided into four groups of 5 mice each. The first group was daily administered vehicle (10% Captisol in 50 mM citrate buffer pH 5.0) through Study Day 15 and also administered i.p. vehicle (BioXcel diluent) on Study Days 1, 4 and 7. The second group was […] a 10 mg/kg i.p. dose of the murine anti-PD-1 antibody (F26, BioXcel) at Days 1, 4 and 7.
At Study Day 39, four tumor-free mice from the combination group were rechallenged 1×10^6 CT26.WT KRas G12C E3 cells in the opposite left flank and mice were monitored for tumor growth for a period of twenty four days to determine whether a durable, adaptive immune response was observed.

[2] = system: CT26.WT KRas G12C E3 clone tumors; experiment: Repeat study: tumor volumes of CT26.WT KRas G12C E3 clone tumor bearing mice, 10 animals per group; type: in vivo, BALBc mice; conditions: for Tumor volume: individual mice
Experimental: as §1
In the second study the number of treated mice was increased from 5 animals per group to 10 animals per group.
as §2, with “volumes reach” for “volumes reached”, “of 10” for “of 5”, “Day 10” for “Day 15”

Q: `C=C(F)C(=O)N1CCN(c2nc(OC[C@@H]3CCCN3C)nc3c2CCN(c2cccc4cccc(Cl)c24)C3)C[C@@H]1CC#N` [Example 478] was tested. Which “mice achieving a complete response” value ([1]; 5 mice per group) did it give?
A: Its value is “all five treated mice achieving a complete response after nine days of administration”.

Q: And the “tumor regrowth / time without a detectable tumor” value ([1]; Example 478 stopped at Study Day 29)?
A: Its value is “eventually tumor growth was detected at the original site of implantation in all five mice”.

Q: And the “mice achieving a complete response” value ([2]; 10 mice per group)?
A: Its value is “all ten treated mice achieving a complete response”.

Q: What about the “tumor regrowth / time without a detectable tumor” value ([2]; Example 478 stopped at Study Day 25) of the same compound?
A: The value was “eventually tumor growth was detected in 6 out of 9 mice at the original site of implantation”.

Q: What about the Tumor volume ([2]; Study Day 14, original implantation site (R), Example 478 100 mg/kg, F26 10 mg/kg i.p., listed as Example 47) of the same compound?
A: Its Tumor volume is 0 mm^3 (9×) and 4 mm^3.

Q: What about the Tumor volume ([2]; Study Day 17, original implantation site (R), Example 478 100 mg/kg, F26 10 mg/kg i.p., listed as Example 47) of the same compound?
A: The Tumor volume was 0 mm^3 (8×) and 32 mm^3.

Q: What about the Tumor volume ([2]; Study Day 19, original implantation site (R), Example 478 100 mg/kg, F26 10 mg/kg i.p., listed as Example 47) of the same compound?
A: The Tumor volume was 51 mm^3 and 0 mm^3 (5×) and 875 mm^3 and 32 mm^3 and 371 mm^3 and 63 mm^3.

Q: What about the Tumor volume ([2]; Study Day 21, original implantation site (R), Example 478 100 mg/kg, F26 10 mg/kg i.p., listed as Example 47) of the same compound?
A: The Tumor volume was 268 mm^3 and 0 mm^3 (5×) and 1320 mm^3 and 139 mm^3 and 762 mm^3 and 274 mm^3.

Q: And the Tumor volume ([2]; Study Day 24, original implantation site (R), Example 478 100 mg/kg, F26 10 mg/kg i.p., listed as Example 47)?
A: The Tumor volume was 877 mm^3 and 0 mm^3 (5×) and 2470 mm^3 and 588 mm^3 and 1498 mm^3 and 291 mm^3.

Q: And the Tumor volume ([2]; Study Day 26, original implantation site (R), Example 478 100 mg/kg, F26 10 mg/kg i.p., listed as Example 47)?
A: Its Tumor volume is 1237 mm^3 and 0 mm^3 (4×) and 923 mm^3 and 1699 mm^3 and 14 mm^3.

Q: And the Tumor volume ([2]; Study Day 28, original implantation site (R), Example 478 100 mg/kg, F26 10 mg/kg i.p., listed as Example 47)?
A: The Tumor volume was 1371 mm^3 and 0 mm^3 (4×) and 1056 mm^3 and 2035 mm^3 and 14 mm^3.

Q: What about the Tumor volume ([2]; Study Day 31, original implantation site (R), Example 478 100 mg/kg, F26 10 mg/kg i.p., listed as Example 47) of the same compound?
A: Its Tumor volume is 2334 mm^3 and 0R 0L mm^3 (4×) and 2113 mm^3 and 161 mm^3.

Q: What about the Tumor volume ([2]; Study Day 31, site of re-challenge (L)) of the same compound?
A: Its Tumor volume is 0R 0L mm^3.

Q: What about the Tumor volume ([2]; Study Day 33, original implantation site (R), Example 478 100 mg/kg, F26 10 mg/kg i.p., listed as Example 47) of the same compound?
A: Its Tumor volume is 0R 0L mm^3 and 289 mm^3 and 63 mm^3 and 32 mm^3 and 4 mm^3.

Q: And the Tumor volume ([2]; Study Day 33, site of re-challenge (L), listed as Example 47)?
A: The Tumor volume was 0R 0L mm^3 and 0 mm^3 (3×).

Q: What about the Tumor volume ([2]; Study Day 38, original implantation site (R), Example 478 100 mg/kg, F26 10 mg/kg i.p., listed as Example 47) of the same compound?
A: The Tumor volume was 0R 0L mm^3 and 425 mm^3 and 318 mm^3 and 124 mm^3 and 63 mm^3.

Q: And the Tumor volume ([2]; Study Day 38, site of re-challenge (L), listed as Example 47)?
A: Its Tumor volume is 0R 0L mm^3 and 0 mm^3 (3×).

Q: What about the Tumor volume ([2]; Study Day 40, original implantation site (R), Example 478 100 mg/kg, F26 10 mg/kg i.p., listed as Example 47) of the same compound?
A: The Tumor volume was 0R 0L mm^3 and 464 mm^3 and 511 mm^3.

Q: What about the Tumor volume ([2]; Study Day 40, site of re-challenge (L), listed as Example 47) of the same compound?
A: The Tumor volume was 0R 0L mm^3 and 0 mm^3 (2×).
